Our source for the IC50 values is ChEMBL document CHEMBL1129021, “Synthesis and biological evaluation of the L-enantiomer of 2-deoxy-5-ethyl-4-thiouridine” (Bioorg Med Chem Lett, 1996).

Assay type in all cases: functional, organism-based
The subject of one test is Human alphaherpesvirus 3. Briefly: Compound was evaluated for the antiviral activity against varicella zoster virus(VZV).
The subject of test [1] is Human immunodeficiency virus 1. Nature of the test: Compound was evaluated for the antiviral activity against human immunodeficiency virus-1(HIV-1).
The next test concerns Human alphaherpesvirus 2. Nature of the test: Compound was evaluated for the antiviral activity against herpes simplex virus-2(HSV-2).
A further test has as its system Human betaherpesvirus 5. Briefly: Compound was evaluated for the antiviral activity against human cytomegalo virus(HCMV).

For orientation: IC50 means the concentration at which inhibition is half-maximal. On to `CCc1cn([C@@H]2C[C@@H](O)[C@H](CO)S2)c(=O)[nH]c1=O`, for which the concentration for half-maximal inhibition (IC50) in the test with Human alphaherpesvirus 3 was above 40 µM; in test [1] it was above 50 µM; in the test on Human alphaherpesvirus 2, above 50 µM; with Human betaherpesvirus 5, above 100 µM.

With `CCc1cn([C@H]2C[C@H](O)[C@@H](CO)S2)c(=O)[nH]c1=O`, the half-maximal inhibitory concentration (IC50) with Human alphaherpesvirus 3 was 0.76 µM; in test [1], above 100 µM; with Human alphaherpesvirus 2, 2.3 µM; in the test with Human betaherpesvirus 5 it was above 100 µM.
